From patent US12516056B2, “Compounds for inhibition of janus kinase 1” (MANKIND PHARMA LTD., priority 2019, dated 2026)
Where a name gives a salt, the structure may show the parent alone. Read-outs that look alike come from different tables or passages of the source.

Columns and labels:
Recombinant JAK1 = molecular target: T1, Recombinant JAK1 (Homo sapiens, UniProt P23458); assay: JAK biochemical assay (LANCE Ultra TR-FRET), JAK1; details: recombinant JAK1, TR-FRET; read-out: Biochemical Assay (μM) JAK1
T1 construct: purchased Carna Biosciences
T1 sequence (P23458 whole entry): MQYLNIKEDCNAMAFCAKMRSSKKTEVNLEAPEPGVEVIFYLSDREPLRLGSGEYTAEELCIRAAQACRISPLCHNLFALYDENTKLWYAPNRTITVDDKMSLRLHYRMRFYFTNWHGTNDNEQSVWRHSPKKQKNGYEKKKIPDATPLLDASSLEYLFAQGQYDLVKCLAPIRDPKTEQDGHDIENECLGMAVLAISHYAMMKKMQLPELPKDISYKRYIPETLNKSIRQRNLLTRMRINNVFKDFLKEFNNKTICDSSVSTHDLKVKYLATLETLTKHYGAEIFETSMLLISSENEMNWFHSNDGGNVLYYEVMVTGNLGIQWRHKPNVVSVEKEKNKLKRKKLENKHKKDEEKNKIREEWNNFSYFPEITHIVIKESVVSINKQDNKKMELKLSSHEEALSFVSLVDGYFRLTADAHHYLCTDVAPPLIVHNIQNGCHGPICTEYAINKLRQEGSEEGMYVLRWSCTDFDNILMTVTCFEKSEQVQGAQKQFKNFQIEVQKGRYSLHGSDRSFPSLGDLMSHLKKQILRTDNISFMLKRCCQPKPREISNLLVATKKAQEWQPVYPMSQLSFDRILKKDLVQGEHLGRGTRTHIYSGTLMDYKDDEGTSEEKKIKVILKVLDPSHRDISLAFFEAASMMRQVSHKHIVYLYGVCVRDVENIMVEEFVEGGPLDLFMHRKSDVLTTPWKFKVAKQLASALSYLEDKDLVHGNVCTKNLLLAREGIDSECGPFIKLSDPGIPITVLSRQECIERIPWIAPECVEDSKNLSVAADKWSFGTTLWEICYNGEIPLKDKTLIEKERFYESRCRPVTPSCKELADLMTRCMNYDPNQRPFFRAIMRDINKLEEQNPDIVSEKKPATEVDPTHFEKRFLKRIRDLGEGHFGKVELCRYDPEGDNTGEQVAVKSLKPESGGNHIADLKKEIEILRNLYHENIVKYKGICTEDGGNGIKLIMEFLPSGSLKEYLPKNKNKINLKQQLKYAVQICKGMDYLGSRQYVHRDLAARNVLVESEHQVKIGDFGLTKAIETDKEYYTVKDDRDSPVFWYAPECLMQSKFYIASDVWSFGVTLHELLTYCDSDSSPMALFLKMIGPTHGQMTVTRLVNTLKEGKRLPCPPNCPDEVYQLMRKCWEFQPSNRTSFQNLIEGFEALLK
Outline: (§1)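 TR-FRET read-out of ULight substrate phosphorylation by recombinant kinase gives % inhibition relative to vehicle. The assay buffer is HEPES pH 7.5 with EGTA, MgCl2, DTT and Tween-20.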

Recombinant TYK2 = molecular target: T2, Recombinant TYK2 (Homo sapiens, UniProt P29597); assay: JAK biochemical assay (LANCE Ultra TR-FRET), TYK2; details: recombinant TYK2, TR-FRET; read-out: Biochemical Assay (μM) TYK2
T2 construct: purchased Carna Biosciences
T2 sequence (P29597 whole entry): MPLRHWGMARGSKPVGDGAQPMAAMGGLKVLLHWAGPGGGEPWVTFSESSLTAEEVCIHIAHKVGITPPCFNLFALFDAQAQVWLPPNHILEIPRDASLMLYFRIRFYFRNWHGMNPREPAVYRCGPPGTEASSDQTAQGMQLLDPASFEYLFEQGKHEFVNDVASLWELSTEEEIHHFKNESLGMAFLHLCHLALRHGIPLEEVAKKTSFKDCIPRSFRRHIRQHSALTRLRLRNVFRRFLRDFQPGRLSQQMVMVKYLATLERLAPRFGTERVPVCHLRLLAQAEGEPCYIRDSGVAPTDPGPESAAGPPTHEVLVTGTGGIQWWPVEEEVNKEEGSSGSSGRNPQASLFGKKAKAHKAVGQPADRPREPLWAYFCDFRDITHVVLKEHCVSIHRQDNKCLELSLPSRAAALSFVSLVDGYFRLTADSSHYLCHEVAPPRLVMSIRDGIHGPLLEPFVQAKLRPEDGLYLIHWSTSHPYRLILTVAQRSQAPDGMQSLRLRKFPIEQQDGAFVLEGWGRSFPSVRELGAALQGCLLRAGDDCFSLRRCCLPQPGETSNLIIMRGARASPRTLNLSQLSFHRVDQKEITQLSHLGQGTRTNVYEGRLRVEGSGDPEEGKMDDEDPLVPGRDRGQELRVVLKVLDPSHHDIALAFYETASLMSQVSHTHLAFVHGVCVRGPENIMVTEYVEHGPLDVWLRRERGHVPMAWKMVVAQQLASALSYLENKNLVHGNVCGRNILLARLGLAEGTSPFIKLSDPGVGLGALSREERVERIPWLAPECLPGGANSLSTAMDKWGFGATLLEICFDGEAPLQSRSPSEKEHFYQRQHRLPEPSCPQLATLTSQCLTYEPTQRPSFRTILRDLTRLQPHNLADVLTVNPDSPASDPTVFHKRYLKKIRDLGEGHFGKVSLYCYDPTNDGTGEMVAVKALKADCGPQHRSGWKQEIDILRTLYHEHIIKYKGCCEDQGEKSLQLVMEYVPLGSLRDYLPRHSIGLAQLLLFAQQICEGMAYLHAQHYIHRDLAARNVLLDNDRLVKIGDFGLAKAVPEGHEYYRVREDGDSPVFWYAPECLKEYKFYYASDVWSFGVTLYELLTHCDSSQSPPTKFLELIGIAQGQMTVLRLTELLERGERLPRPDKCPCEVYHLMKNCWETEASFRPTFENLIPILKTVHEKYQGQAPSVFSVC
Outline: as §1

[1] = test system: STAT3 phosphorylation by IL-6 in TF-1 cells; assay: JAK cellular assay: STAT3 phosphorylation by IL-6 in TF-1 cells (HTRF); assay type: cell-based; details: IL-6 30 ng/ml, pSTAT3 HTRF, read-out: Cell Based Assay (μM) TF-1/IL-6/pSTAT3
Procedure: TF-1 cells were starved overnight in OptiMEM medium with 0.5% charcoal stripped fetal bovine serum, 0.1 mM nonessential amino acids (NEAA), 1 mM sodium pyruvate and without phenol red in CO2 incubator maintained at 37° c. Next day, cells were resuspended in RPMI without phenol red and dispensed into a 96 well plate at a final cell density of 1,20,000 cells per well. Compounds were diluted in DMSO and added to cells and incubated for 30 minutes in CO2 incubator maintained at 37° c. Final DMSO concentration in cell based assay was 0.2%. Human recombinant cytokines, IL-6 (30 ng/ml) and GMCSF (5 ng/ml) were added to the plate containing cells along with compound and incubated for 20 minutes with gentle tapping at every 5 minutes once. Compound mediated effects on STAT3 and STAT5 phosphorylation was measured in the lysates prepared by using CISBIO pSTAT3 and pSTAT5 detection kits by HTRF method. Background signal obtained from cells which were not activated with cytokines, was subtracted from vehicle controls and compound treated wells.

Recombinant JAK3 = molecular target: T3, Recombinant JAK3 (Homo sapiens, UniProt P52333); assay: JAK biochemical assay (LANCE Ultra TR-FRET), JAK3; details: recombinant JAK3, TR-FRET; read-out: Biochemical Assay (μM) JAK3
T3 construct: purchased Carna Biosciences
T3 sequence (P52333 1-1124): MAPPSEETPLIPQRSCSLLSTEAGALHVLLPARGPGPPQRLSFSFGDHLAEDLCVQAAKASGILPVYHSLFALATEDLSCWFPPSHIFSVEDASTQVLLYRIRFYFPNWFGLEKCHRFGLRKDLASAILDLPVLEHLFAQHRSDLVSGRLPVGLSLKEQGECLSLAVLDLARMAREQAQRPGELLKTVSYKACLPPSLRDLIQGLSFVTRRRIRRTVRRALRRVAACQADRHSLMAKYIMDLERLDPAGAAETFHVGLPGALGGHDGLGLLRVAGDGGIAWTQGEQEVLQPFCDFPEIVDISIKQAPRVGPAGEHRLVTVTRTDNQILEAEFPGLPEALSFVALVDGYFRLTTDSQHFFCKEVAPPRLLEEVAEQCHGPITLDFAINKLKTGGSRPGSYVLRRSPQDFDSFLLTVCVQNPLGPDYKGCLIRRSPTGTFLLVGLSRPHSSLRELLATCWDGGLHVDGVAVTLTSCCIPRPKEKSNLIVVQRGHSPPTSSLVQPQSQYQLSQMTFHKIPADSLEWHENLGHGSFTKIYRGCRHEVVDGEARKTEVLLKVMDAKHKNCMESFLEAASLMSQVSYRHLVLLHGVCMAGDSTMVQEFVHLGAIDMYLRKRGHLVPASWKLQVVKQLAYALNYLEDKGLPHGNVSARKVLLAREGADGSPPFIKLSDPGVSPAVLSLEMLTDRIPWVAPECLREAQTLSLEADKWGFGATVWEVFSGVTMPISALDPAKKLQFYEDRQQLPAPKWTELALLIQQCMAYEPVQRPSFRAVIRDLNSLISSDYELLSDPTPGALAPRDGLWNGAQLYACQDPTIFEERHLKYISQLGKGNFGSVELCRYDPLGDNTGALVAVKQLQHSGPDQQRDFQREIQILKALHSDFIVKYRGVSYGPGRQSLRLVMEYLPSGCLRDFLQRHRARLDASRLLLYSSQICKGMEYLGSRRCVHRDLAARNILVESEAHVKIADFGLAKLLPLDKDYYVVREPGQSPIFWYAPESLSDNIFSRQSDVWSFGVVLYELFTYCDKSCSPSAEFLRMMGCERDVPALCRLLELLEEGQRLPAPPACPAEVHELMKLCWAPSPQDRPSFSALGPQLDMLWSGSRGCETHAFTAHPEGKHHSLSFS
Outline: as §1

Recombinant JAK2 = molecular target: T4, Recombinant JAK2 (Homo sapiens, UniProt O60674); assay: JAK biochemical assay (LANCE Ultra TR-FRET), JAK2; details: recombinant JAK2, TR-FRET; read-out: Biochemical Assay (μM) JAK2
T4 construct: purchased Carna Biosciences
T4 sequence (O60674 whole entry): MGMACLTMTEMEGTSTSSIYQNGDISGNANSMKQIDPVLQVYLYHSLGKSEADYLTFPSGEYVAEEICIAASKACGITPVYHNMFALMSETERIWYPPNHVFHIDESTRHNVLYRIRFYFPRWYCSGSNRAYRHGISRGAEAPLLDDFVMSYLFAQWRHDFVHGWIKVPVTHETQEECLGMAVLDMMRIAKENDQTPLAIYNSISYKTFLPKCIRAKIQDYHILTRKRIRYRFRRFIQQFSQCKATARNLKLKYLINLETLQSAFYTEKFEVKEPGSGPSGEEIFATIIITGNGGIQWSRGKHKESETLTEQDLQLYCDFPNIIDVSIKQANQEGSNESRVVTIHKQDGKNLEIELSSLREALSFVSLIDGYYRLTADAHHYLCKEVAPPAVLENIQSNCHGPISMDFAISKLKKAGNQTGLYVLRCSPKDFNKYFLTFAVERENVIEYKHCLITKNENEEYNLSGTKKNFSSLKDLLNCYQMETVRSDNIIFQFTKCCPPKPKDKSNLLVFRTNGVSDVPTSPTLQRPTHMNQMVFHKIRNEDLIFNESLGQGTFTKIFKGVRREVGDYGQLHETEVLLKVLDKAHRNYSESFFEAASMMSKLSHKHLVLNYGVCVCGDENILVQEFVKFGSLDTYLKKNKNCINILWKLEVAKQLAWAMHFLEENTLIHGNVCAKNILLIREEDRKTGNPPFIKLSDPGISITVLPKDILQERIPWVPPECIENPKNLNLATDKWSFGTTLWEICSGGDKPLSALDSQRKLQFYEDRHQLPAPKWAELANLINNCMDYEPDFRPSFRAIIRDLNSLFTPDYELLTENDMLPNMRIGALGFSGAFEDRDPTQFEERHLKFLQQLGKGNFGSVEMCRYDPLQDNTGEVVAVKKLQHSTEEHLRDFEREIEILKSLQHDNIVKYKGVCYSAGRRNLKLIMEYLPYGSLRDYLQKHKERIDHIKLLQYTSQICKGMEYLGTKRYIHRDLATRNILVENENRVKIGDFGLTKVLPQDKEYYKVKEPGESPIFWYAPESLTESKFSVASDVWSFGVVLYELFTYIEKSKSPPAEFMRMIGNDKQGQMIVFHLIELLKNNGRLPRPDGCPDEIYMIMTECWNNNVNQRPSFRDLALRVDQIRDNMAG
Outline: as §1

Row | Structure (SMILES) | IC50 (Recombinant JAK1) | IC50 (Recombinant TYK2) | IC50 ([1]; Homo sapiens, TF-1, TF-1 cells) | IC50 (Recombinant JAK3) | IC50 (Recombinant JAK2) | IC50 ([1]; TF-1 cells, hydrochloride)
1 | O=C(NCC(F)(F)F)Nc1ccc(-c2ccnc3[nH]c(=O)[nH]c23)cn1 [Example 1005, 1-(2,2,2-trifluoroethyl)-3-(5-(2,3-dihydro-2-oxo-1H-imidazo[4,5-b]pyridin-7-yl)pyridin-2-yl)urea] | – | > 1 µM | > 10 µM | – | – | –
2 | CC1(C)CN(C(=O)Nc2ccc(-c3ccnc4[nH]c(=O)[nH]c34)cc2)C1 [Example 1007, N-(4-(2,3-dihydro-2-oxo-1H-imidazo[4,5-b]pyridin-7-yl)phenyl)-3,3-dimethylazetidine-1-carboxamide] | > 0.5 µM | > 1 µM | > 10 µM | > 1 µM | > 0.5 µM | –
3 | CC1(C)CN(C(=O)n2cc(-c3ccnc4[nH]c(=O)[nH]c34)cn2)C1 [Example 1037, 7-(1-(3,3-dimethylazetidine-1-carbonyl)-1H-pyrazol-4-yl)-1,3-dihydro-2H-imidazo[4,5-b]pyridin-2-one] | > 0.5 µM | > 0.5 µM | > 10 µM | > 1 µM | > 1 µM | –
4 | N#CC(NC(=O)n1cc(-c2ccnc3[nH]c(=O)[nH]c23)cn1)C1CCCC1 (centres unmarked) [Example 1038, N-(cyano(cyclopentyl)methyl)-4-(2,3-dihydro-2-oxo-1H-imidazo[4,5-b]pyridin-7-yl)-1H-pyrazole-1-carboxamide] | > 0.5 µM | > 0.5 µM | 10 µM | > 0.5 µM | > 0.5 µM | –
5 | O=C(NC(C1CCCC1)C(F)(F)F)n1cc(-c2ccnc3[nH]c(=O)[nH]c23)cn1 (centres unmarked) [Example 1041, N-(1-cyclopentyl-2,2,2-trifluoroethyl)-4-(2,3-dihydro-2-oxo-1H-imidazo[4,5-b]pyridin-7-yl)-1H-pyrazole-1-carboxamide] | > 1 µM | > 1 µM | > 10 µM | > 10 µM | > 1 µM | –
6 | N#CC1CCCCC1NC(=O)n1cc(-c2ccnc3[nH]cnc23)cn1 (centres unmarked) [Example 1066, N-(2-cyanocyclohexyl)-4-(3H-imidazo[4,5-b]pyridin-7-yl)-1H-pyrazole-1-carboxamide] | – | > 0.5 µM | > 10 µM | > 0.5 µM | > 0.5 µM | –
7 | COCCC(C#N)NC(=O)n1cc(-c2ccnc3[nH]cnc23)cn1 (centres unmarked) [Example 1071, N-(1-cyano-3-methoxypropyl)-4-(3H-imidazo[4,5-b]pyridin-7-yl)-1H-pyrazole-1-carboxamide] | > 0.5 µM | > 0.5 µM | > 10 µM | > 0.5 µM | > 0.5 µM | –
8 | N#CCc1ccc(-n2cc(-c3ccnc4[nH]cnc34)cn2)nc1 [Example 1082, 2-(6-(4-(3H-imidazo[4,5-b]pyridin-7-yl)-1H-pyrazol-1-yl)pyridin-3-yl)acetonitrile hydrochloride] | < 0.5 µM | – | – | < 0.5 µM | < 0.5 µM | > 1 µM
9 | O=S(=O)(CCC(c1ccc(-n2cc(-c3ccnc4[nH]cnc34)cn2)nc1)C(F)(F)F)C1CC1 (centres unmarked) [Example 1139, 7-(1-(5-(4-(cyclopropylsulfonyl)-1,1,1-trifluorobutan-2-yl)pyridin-2-yl)-1H-pyrazol-4-yl)-3H-imidazo[4,5-b]pyridine] | > 0.5 µM | > 1 µM | 1 µM | > 0.1 µM | > 0.5 µM | –
10 | CC(C)NCC[C@H](c1ccc(-n2cc(-c3ccnc4[nH]cnc34)cn2)nc1)C(F)(F)F [Example 1208, (R)-3-(6-(4-(3H-imidazo[4,5-b]pyridin-7-yl)-1H-pyrazol-1-yl)pyridin-3-yl)-4,4,4-trifluoro-N-isopropylbutan-1-amine] | – | > 0.5 µM | > 1 µM | 0.005 µM | 0.01 µM | –
11 | CC(C)NCC(c1ccc(-n2cc(-c3ccnc4[nH]cnc34)cn2)nc1)C(F)(F)F (centres unmarked) [Example 1218, 2-(6-(4-(3H-imidazo[4,5-b]pyridin-7-yl)-1H-pyrazol-1-yl)pyridin-3-yl)-3,3,3-trifluoro-N-isopropylpropan-1-amine] | – | – | > 0.5 µM | – | – | –
12 | O=C(CC(c1ccc(-n2cc(-c3ccnc4[nH]cnc34)cn2)nc1)C(F)(F)F)N1CCOCC1 (centres unmarked) [Example 1249, 3-(6-(4-(3H-imidazo[4,5-b]pyridin-7-yl)-1H-pyrazol-1-yl)pyridin-3-yl)-4,4,4-trifluoro-1-morpholinobutan-1-one] | > 0.5 µM | > 1 µM | – | > 0.5 µM | > 0.5 µM | –

Second part, the compound after the results:

Row | IC50 (Recombinant JAK1) | IC50 (Recombinant TYK2) | IC50 ([1]; Homo sapiens, TF-1, TF-1 cells) | IC50 (Recombinant JAK3) | IC50 (Recombinant JAK2) | IC50 ([1]; TF-1 cells, hydrochloride) | Structure (SMILES)
13 | 0.021 µM | 0.182 µM | > 10 µM | 0.175 µM | 0.036 µM | – | O=C(NCC(F)(F)F)Nc1ccc(-c2ccnc3[nH]c(=O)[nH]c23)cc1 [Example 1003, 1-(2,2,2-trifluoroethyl)-3-(4-(2,3-dihydro-2-oxo-1H-imidazo[4,5-b]pyridin-7-yl)phenyl)urea]
14 | < 0.5 µM | < 0.5 µM | > 10 µM | < 0.5 µM | < 0.5 µM | – | O=C(NCC(F)(F)F)N1CCN(c2ccnc3[nH]c(-c4ccccc4)nc23)CC1 [Example 1022, N-(2,2,2-trifluoroethyl)-4-(2-phenyl-3H-imidazo[4,5-b]pyridin-7-yl)piperazine-1-carboxamide]
15 | 0.039 µM | 0.093 µM | 10 µM | 0.43 µM | 0.066 µM | – | CC(NC(=O)n1cc(-c2ccnc3[nH]c(=O)[nH]c23)cn1)C(F)(F)F (centres unmarked) [Example 1030, N-(1,1,1-trifluoropropan-2-yl)-4-(2,3-dihydro-2-oxo-1H-imidazo[4,5-b]pyridin-7-yl)-1H-pyrazole-1-carboxamide]
16 | < 0.5 µM | < 0.5 µM | > 10 µM | < 0.5 µM | < 0.5 µM | – | N#CC1(NC(=O)n2cc(-c3ccnc4[nH]c(=O)[nH]c34)cn2)CC1 [Example 1032, N-(1-cyanocyclopropyl)-4-(2,3-dihydro-2-oxo-1H-imidazo[4,5-b]pyridin-7-yl)-1H-pyrazole-1-carboxamide]
17 | < 0.5 µM | < 0.5 µM | 10 µM | – | < 0.5 µM | – | N#CCC(NC(=O)n1cc(-c2ccnc3[nH]c(=O)[nH]c23)cn1)C1CCCC1 (centres unmarked) [Example 1039, N-(2-cyano-1-cyclopentylethyl)-4-(2,3-dihydro-2-oxo-1H-imidazo[4,5-b]pyridin-7-yl)-1H-pyrazole-1-carboxamide]
18 | < 0.5 µM | < 0.5 µM | 10 µM | < 0.5 µM | < 0.5 µM | – | CC(C)C(C#N)NC(=O)n1cc(-c2ccnc3[nH]c(=O)[nH]c23)cn1 (centres unmarked) [Example 1044, N-(1-cyano-2-methylpropyl)-4-(2,3-dihydro-2-oxo-1H-imidazo[4,5-b]pyridin-7-yl)-1H-pyrazole-1-carboxamide]
19 | < 0.5 µM | < 0.5 µM | > 10 µM | < 0.5 µM | < 0.5 µM | – | O=C(NCC(F)(F)F)n1cc(-c2ccnc3[nH]cnc23)cn1 [Example 1064, N-(2,2,2-trifluoroethyl)-4-(3H-imidazo[4,5-b]pyridin-7-yl)-1H-pyrazole-1-carboxamide]
